According to BindingDB's records for doi:10.1021/acs.jmedchem.1c01118 (Glaxosmithkline, 2021):

Test: Binding affinity to human 6His-thr cIAP1 BIR3 (253 to 363) domain expressed in Escherichia coli measured after 105 mins in dark by time-resolved fluorescence laser-equipped multimode plate reader

IC50 | SMILES
7.9 nM | CN[C@@H](C)C(=O)N[C@H](C(=O)N1CCC[C@H]1c1nc(C(=O)c2ccc(F)cc2)cs1)C1CCN(C(=O)c2cnc(N3CCN(CCCOc4cc5ncnc(Nc6n[nH]c(C)c6C)c5cc4S(=O)(=O)C(C)(C)C)CC3)cn2)CC1
5 nM | Cc1[nH]nc(Nc2ncnc3cc(OCCCN4CCN(C(=O)c5cnc(N6CCN(C[C@H]7CN[C@H](C)CN7CC(=O)N7CC(C)(C)c8c7cc(Cc7ccc(F)cc7)c(=O)n8C)[C@H](C)C6)nc5)CC4)c(S(=O)(=O)C(C)(C)C)cc23)c1C
